Data: US20210000778A1

Key:
Human H460 NSCLC cells = test: Oral efficacy in human non-small cell lung cancer xenografts; type: in vivo, CD1-Nu/Nu female mice; conditions: H460 xenograft; oral 100 mg/kg on day 8, 15, 22, 29; vs 5% dextrose or untreated
Procedure: Human H460 NSCLC cells were obtained from American Type Cell Culture (ATCC) (catalog no. HTB-177, Manassas, Va.). These cells tested negative for viral contamination using the Mouse Antibody Production (MAP) test, performed by Charles River Labs Molecular Division, upon the receipt of the tumor cells from ATCC. The tumor cells were maintained at 37° C. in a humidified 5% CO2 atmosphere in T225 tissue culture flasks containing 50 mL of Roswell Park Memorial Institute (RPMI)-1640 solution with 10% Fetal Bovine Serum (FBS) and 2 mM L-glutamine. Cells were split at a ratio of 1:10 every 2-3 days by trypsinization and resuspended in fresh medium in a new flask. Cells were harvested for experiments in the same way at 70-90% confluency.
CD1-Nu/Nu female mice, ˜4-6 weeks old were obtained from Charles River Laboratories. Mice were housed 5 to a cage in a micro-isolator room in the Department of Animal Laboratory Research of New York State University (SUNY) at Stony Brook. Light-dark cycles were 12 h each daily, with light from 7 a.m. to 7 p.m. […]
An acclimation period of 7 days was allowed between the arrival of the animal at the study site before tumor inoculation and experimentation. […] Tumor dimensions (length and width) were measured daily before, during and after treatment (using Vernier calipers) and the tumor volume was calculated using the prolate ellipsoid formula: (length× width^2)/2. […]

[1] = Pardee et al., Clin Cancer Res. 2014; cited from earlier work
22RV1 = test: In vitro killing of prostate cancer cell lines, CellTiter 96 cell survival; type: cell-based; conditions: Homo sapiens, 60 hrs in RPMI with 10% FBS
Procedure: (§1) Cell survival was assayed with CellTiter 96® Aqueous One Solution Cell Proliferation Assay (Promega). EC50 values were calculated.

DU 145 = test: as above; type: cell-based; conditions: Homo sapiens, 60 hrs in RPMI with 10% FBS
Procedure: as §1

RWPI-1 = test: as above; type: cell-based; conditions: 60 hrs in RPMI with 10% FBS
Procedure: as §1

LnCap = test: as above; type: cell-based; conditions: Homo sapiens, 60 hrs in RPMI with 10% FBS
Procedure: as §1

PC-3 = test: as above; type: cell-based; conditions: Homo sapiens, 60 hrs in RPMI with 10% FBS
Procedure: as §1

[2] = test system: androgen-resistance prostate PC-3 cancer cells; test: PC-3 flank model of androgen-resistant prostate cancer; type: in vivo; conditions: 2.5 mg/kg or 10 mg/kg, 2-3 times per week for five weeks
[3] = test system: BxPC3 pancreatic cancer cells; test: Oral efficacy in human pancreatic cancer xenografts; type: in vivo, CD-1 nude mice; conditions: BxPC-3 xenograft; oral dose of 100 mg/week for 4 weeks; vs 5% dextrose or untreated
Procedure: An acclimation period of 7 days was allowed between the arrival of the animal at the study site before tumor inoculation and experimentation. Mice were inoculated subcutaneously (SC) in the right flank with 2×10^6 human H460 NSCLC or BxPC3 pancreatic cancer cells that were suspended in 0.1 mL of Dulbeco's Phosphate Buffered Salt (PBS) solution using a 1 cc syringe with a 27-5/8 gauge needle. Tumor dimensions (length and width) were measured daily before, during and after treatment (using Vernier calipers) and the tumor volume was calculated using the prolate ellipsoid formula: (length× width^2)/2. Treatment with test or control articles began 8 days post tumor cell implantation when the tumor was approximately 300 mm^3.
A similar study was conducted in CD-1 nude mice (n=9) inoculated with 2×10^6 BxPC-3 cells. The study was initiated when tumors reached an average size of 150 mm^3 (day 0) and CPI-613 was administered at an oral dose of 100 mg/week for 4 weeks. A comparator arm (n=9) was conducted with IP treatment at a weekly dose of 25 mg/kg.

## O=C(O)CCCCC(CCSCc1ccccc1)SCc1ccccc1 (centres unmarked)
Human H460 NSCLC cells
  Tumor growth: grew much more slowly
[1]
  half-life after IV dosing: 1 to 2 h
22RV1
  EC50: 175 µM
DU 145
  EC50: 99 µM
RWPI-1
  EC50: 147 µM
LnCap
  EC50: 114 µM
PC-3
  EC50: 202 µM
[2]
  Toxicity: without toxicity
[2]; vs saline control
  Survival of the mice: increased survival
  Tumor growth (tumor volume over time): significantly slower
[3]
  Tumor growth: especially pronounced
